In series [1] the test system is trabeculae from the right ventricular free wall of explanted human hearts. Put plainly: Tension study: peak contractile force of isolated human right ventricular trabeculae in a muscle bath. To be noted: 37° C., 1.0 Hz field stimulation, increasing concentrations. On the procedure: Explanted human hearts were obtained from transplant recipients (n=7) and from nonfailing donor hearts (n=1). After excision, hearts were placed immediately into ice cold Tyrode's solution and aerated with 95% O2 and 5% CO2. Trabeculae between 1-3 mm in width and 7-10 mm in length were excised from the right ventricular free wall. Subsequently trabeculae were mounted in a multi-chamber muscle bath in oxygenated Tyrode's solution at 37° C. The trabeculae were placed under 1 gram of resting tension and a field stimulation of 1.0 Hz. […] Peak contractile forces were recorded at 10 minute intervals for a total of 1½ hours. Following experimentation, trabeculae were frozen in liquid N2.

The target of series [2] is T1, PDE-III isolated from human platelets (Homo sapiens, UniProt Q14432).
T1 construct: PDE-III isolated from human platelets; from tissue; host or cells: human platelets
T1 sequence (Q14432 whole entry): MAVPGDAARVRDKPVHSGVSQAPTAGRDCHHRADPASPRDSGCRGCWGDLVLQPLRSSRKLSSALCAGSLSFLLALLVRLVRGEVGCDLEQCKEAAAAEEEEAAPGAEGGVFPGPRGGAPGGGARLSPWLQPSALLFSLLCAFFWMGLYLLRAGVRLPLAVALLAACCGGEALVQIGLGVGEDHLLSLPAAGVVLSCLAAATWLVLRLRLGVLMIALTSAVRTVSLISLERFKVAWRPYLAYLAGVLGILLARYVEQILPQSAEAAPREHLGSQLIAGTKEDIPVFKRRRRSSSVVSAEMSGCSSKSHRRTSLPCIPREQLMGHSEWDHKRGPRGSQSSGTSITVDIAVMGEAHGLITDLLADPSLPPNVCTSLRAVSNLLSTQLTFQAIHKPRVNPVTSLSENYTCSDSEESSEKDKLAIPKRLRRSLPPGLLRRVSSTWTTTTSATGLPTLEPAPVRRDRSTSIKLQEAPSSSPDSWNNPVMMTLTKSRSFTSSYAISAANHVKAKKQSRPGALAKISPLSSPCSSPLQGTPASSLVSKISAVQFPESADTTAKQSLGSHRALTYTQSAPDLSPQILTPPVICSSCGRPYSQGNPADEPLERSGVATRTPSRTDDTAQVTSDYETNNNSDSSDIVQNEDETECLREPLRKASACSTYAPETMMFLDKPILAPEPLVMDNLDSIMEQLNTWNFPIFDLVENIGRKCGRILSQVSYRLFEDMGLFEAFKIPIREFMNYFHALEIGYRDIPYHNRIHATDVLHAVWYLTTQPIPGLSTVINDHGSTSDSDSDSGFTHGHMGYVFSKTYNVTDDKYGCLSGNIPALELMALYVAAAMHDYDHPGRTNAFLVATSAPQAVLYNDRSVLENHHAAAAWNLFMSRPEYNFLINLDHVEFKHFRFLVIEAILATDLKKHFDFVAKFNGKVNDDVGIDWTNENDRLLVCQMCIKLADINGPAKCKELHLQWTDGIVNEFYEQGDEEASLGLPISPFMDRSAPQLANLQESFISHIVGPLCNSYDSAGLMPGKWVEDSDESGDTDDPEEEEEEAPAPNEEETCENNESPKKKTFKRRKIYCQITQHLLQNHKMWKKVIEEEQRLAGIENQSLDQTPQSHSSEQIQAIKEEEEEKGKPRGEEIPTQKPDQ
Put plainly: PDE-III inhibition assay, [3H]cAMP substrate, [3H]Adenosine quantified. It counts as biochemical. To be noted: triplicate at three concentrations over log scale, semi-quantitative. On the procedure: Enoximone Sulfoxide enantiomer was tested for its ability to inhibit the action of PDE-III isolated from human platelets. The substrate was [^3H]cAMP+cAMP, which is converted by PDE-III to [^3H]Adenosine and then [^3H]Adenosine can be quantified.

For series [3] the following is noted: oral, cited from earlier work.
The conditions of series [4]: cited from earlier work.
Series [5] relates to men who suffer from ED of psychogenic or organic etiology. To be noted: clinical studies; cited from earlier work.
The next series has as its system PDE-III. To be noted: cited from earlier work.

This is an account of results in US20060025463A1, “Enoximone sulfoxide enantiomers and their use in the treatment of PDE-III mediated diseases” (priority 2004, published 2006).

In general, IC50 refers to the midpoint of a concentration-inhibition curve. Low readings indicate greater potency in that assay, high ones weaker potency in that assay.

Read-outs that look alike come from different tables or passages of the source.

For the compound `Cc1[nH]c(=O)[nH]c1C(=O)c1ccc([S+](C)[O-])cc1.O` (single isomer, unassigned) [(R)-(+)-enantiomer, 1,3-Dihydro-4-methyl-5-[(4-methylsulfinyl)-benzoyl]-2H-imidazol-2-one hydrate], the “peak contractile force (net, T=0 value subtracted)” value (“peak contractile force” for short) in series [1] is listed as 175 mg of tension.

Turning to `Cc1[nH]c(=O)[nH]c1C(=O)c1ccc([S@+](C)[O-])cc1` [(S)-(−)-enantiomer, 1,3-Dihydro-4-methyl-5-[(4-methylsulfinyl)-benzoyl]-2H-imidazol-2-one hydrate], in series [1], the “peak contractile force” value is 550 mg of tension. In addition, the IC50 in series [2] turned out to be 147 µM.

Regarding `CSc1ccc(C(=O)c2[nH]c(=O)[nH]c2C)cc1` [Enoximone, 1,3-Dihydro-4-methyl-5-[4-(methylthio)benzoyl]-2H-imidazol-2-one], the “peak contractile force” value in series [1] is recorded as 575 mg of tension. In addition, the “average steady-state plasma concentration” value in series [3] (50 mg every 8 hours) was 115 ± 40 ng/mL. Further, the “average steady-state plasma concentration” value in series [3] (100 mg every 8 hours) was 190 ± 78 ng/mL. In addition, in series [4] (patients with cardiac failure), the mean clearance entry was “about 10 ml/min/kg” and the mean half-life is given as 6 h. Further, the Bioavailability result in series [4] (single oral dose of 3 mg/kg) is reported as “about 55%”.

As to `CC(C)NCC(O)c1ccc(O)c(O)c1` (stereo not drawn) [Isoproterenol], the “peak contractile force” value in series [1] was > 1000 mg of tension.

On to `CCCc1nn(C)c2c(=O)[nH]c(-c3cc(S(=O)(=O)N4CCN(C)CC4)ccc3OCC)nc12` [sildenafil, 5-[2-ethoxy-5-(4-methylpiperazin-1-ylsulphonyl)phenyl]-1-methyl-3-n-propyl-6,7-dihydro-1H-pyrazolo[4,3-d]pyrimidin-7-one], for which, in series [5], the “men with improved sexual function” value is given as “about 70%”. Further, the “inhibition of PDE-III” value in the series with PDE-III was “negligible inhibition”.
